From patent US11331299B2, “Medicinal use of serrulatane diterpenes” (The University of Sydney, priority 2016, dated 2022)
Read-outs that look alike come from different tables or passages of the source.

Test system: 280 human cancer cell lines
Assay: OncoPanel cell proliferation assay (10-day)
Format: cell-based
Conditions: Homo sapiens; for GI50: read-out: Cell Count GI50; for IC50: read-out: Cell Count IC50; for EC50: read-out: Cell Count EC50
[1] = SJRH30, SJRH30, Soft Tissue - Sarcoma
[2] = SJSA-1, SJSA1, Soft Tissue - Osteosarcoma
[3] = SK-LMS-1, SK-LMS-1, Soft Tissue - Sarcoma
[4] = SK-MEL3, SK-MEL-3, Skin (Melanoma)
[5] = SK-MEL-1, SK-MEL-1, Skin (Melanoma)
[6] = SK-MEL-28, SK-MEL-28, Skin (Melanoma)
[7] = SK-OV-3, SKOV3, Female GU - Ovary
[8] = SK-UT-1, SK-UT-1, Soft Tissue - Sarcoma
[9] = SW579, SW579, Endocrine - Thyroid
[10] = SW684, SW684, Soft Tissue - Sarcoma

**Q.** For `CC(C)=CCC[C@H](CO)[C@@H]1CC[C@@H](C)c2c1cc(C)c(O)c2O` [Compound 1, 7,8,18-trihydroxyserrulat-14-ene], which GI50 (SH-4, Skin (Melanoma)) is on record?
**A.** 1940 nM

**Q.** What about the IC50 (SH-4, Skin (Melanoma)) of the same compound?
**A.** 1950 nM

**Q.** What about the EC50 (SHP77, SHP-77, Lung - SCLC) of the same compound?
**A.** 890 nM

**Q.** And the GI50 (SHP77, SHP-77, Lung - SCLC)?
**A.** 890 nM

**Q.** And the IC50 (SHP77, SHP-77, Lung - SCLC)?
**A.** 900 nM

**Q.** What about the EC50 [1] of the same compound?
**A.** 1420 nM

**Q.** And the GI50 [1]?
**A.** 1410 nM

**Q.** What about the IC50 [1] of the same compound?
**A.** 1420 nM

**Q.** What about the EC50 [2] of the same compound?
**A.** 1410 nM

**Q.** What about the GI50 [2] of the same compound?
**A.** 1410 nM

**Q.** What about the IC50 [2] of the same compound?
**A.** 1410 nM

**Q.** What about the EC50 (SK-BR-3, SK-BR-3, Breast) of the same compound?
**A.** 1790 nM

**Q.** And the GI50 (SK-BR-3, SK-BR-3, Breast)?
**A.** 1760 nM

**Q.** And the IC50 (SK-BR-3, SK-BR-3, Breast)?
**A.** 1800 nM

**Q.** What about the EC50 [3] of the same compound?
**A.** 1570 nM

**Q.** What about the GI50 [3] of the same compound?
**A.** 1560 nM

**Q.** What about the IC50 [3] of the same compound?
**A.** 1570 nM

**Q.** What about the EC50 [4] of the same compound?
**A.** 4370 nM

**Q.** What about the GI50 [4] of the same compound?
**A.** 4280 nM

**Q.** And the IC50 [4]?
**A.** 4380 nM

**Q.** What about the EC50 [5] of the same compound?
**A.** 4290 nM

**Q.** And the GI50 [5]?
**A.** 4110 nM

**Q.** What about the IC50 [5] of the same compound?
**A.** 4410 nM

**Q.** And the EC50 [6]?
**A.** 1540 nM

**Q.** What about the GI50 [6] of the same compound?
**A.** 1530 nM

**Q.** And the IC50 [6]?
**A.** 1540 nM

**Q.** And the EC50 (SK-MES-1, SKMES1, Lung - NSCLC)?
**A.** 1060 nM

**Q.** And the GI50 (SK-MES-1, SKMES1, Lung - NSCLC)?
**A.** 1060 nM

**Q.** And the IC50 (SK-MES-1, SKMES1, Lung - NSCLC)?
**A.** 1060 nM

**Q.** What about the EC50 (SK-N-AS, CNS - Neuroblastoma) of the same compound?
**A.** 3580 nM

**Q.** And the GI50 (SK-N-AS, CNS - Neuroblastoma)?
**A.** 3540 nM

**Q.** What about the IC50 (SK-N-AS, CNS - Neuroblastoma) of the same compound?
**A.** 3580 nM

**Q.** And the EC50 (SK-N-DZ, CNS - Neuroblastoma)?
**A.** 3160 nM

**Q.** And the GI50 (SK-N-DZ, CNS - Neuroblastoma)?
**A.** 2940 nM

**Q.** What about the IC50 (SK-N-DZ, CNS - Neuroblastoma) of the same compound?
**A.** 3160 nM

**Q.** What about the EC50 (SK-N-FI, CNS - Neuroblastoma) of the same compound?
**A.** 7310 nM

**Q.** What about the GI50 (SK-N-FI, CNS - Neuroblastoma) of the same compound?
**A.** 6320 nM

**Q.** And the IC50 (SK-N-FI, CNS - Neuroblastoma)?
**A.** 7310 nM

**Q.** What about the EC50 [7] of the same compound?
**A.** 1580 nM

**Q.** What about the GI50 [7] of the same compound?
**A.** 1560 nM

**Q.** And the IC50 [7]?
**A.** 1580 nM

**Q.** And the EC50 (SK-PN-DW, Stomach)?
**A.** 4660 nM

**Q.** What about the GI50 (SK-PN-DW, Stomach) of the same compound?
**A.** 4630 nM

**Q.** What about the IC50 (SK-PN-DW, Stomach) of the same compound?
**A.** 4660 nM

**Q.** What about the EC50 [8] of the same compound?
**A.** 2230 nM

**Q.** What about the GI50 [8] of the same compound?
**A.** 2220 nM

**Q.** And the IC50 [8]?
**A.** 2230 nM

**Q.** What about the EC50 (SKO-007, SKO-007, Myeloma) of the same compound?
**A.** 990 nM

**Q.** And the GI50 (SKO-007, SKO-007, Myeloma)?
**A.** 930 nM

**Q.** What about the IC50 (SKO-007, SKO-007, Myeloma) of the same compound?
**A.** 990 nM

**Q.** And the EC50 (SNB-19, SNB-19, CNS - Glioma)?
**A.** 1660 nM

**Q.** And the GI50 (SNB-19, SNB-19, CNS - Glioma)?
**A.** 1650 nM

**Q.** And the IC50 (SNB-19, SNB-19, CNS - Glioma)?
**A.** 1660 nM

**Q.** What about the EC50 (SNU1, SNU-1, Stomach) of the same compound?
**A.** 1250 nM

**Q.** What about the GI50 (SNU1, SNU-1, Stomach) of the same compound?
**A.** 1250 nM

**Q.** And the IC50 (SNU1, SNU-1, Stomach)?
**A.** 1250 nM

**Q.** And the EC50 (SNU-5, SNU-5, Stomach)?
**A.** 3920 nM

**Q.** What about the GI50 (SNU-5, SNU-5, Stomach) of the same compound?
**A.** 3870 nM

**Q.** And the IC50 (SNU-5, SNU-5, Stomach)?
**A.** 3920 nM

**Q.** What about the EC50 (SNU-16, SNU-16, Stomach) of the same compound?
**A.** 1310 nM

**Q.** What about the GI50 (SNU-16, SNU-16, Stomach) of the same compound?
**A.** 1310 nM

**Q.** What about the IC50 (SNU-16, SNU-16, Stomach) of the same compound?
**A.** 1310 nM

**Q.** What about the EC50 (SNU-423, SNU-423, Liver) of the same compound?
**A.** 1480 nM

**Q.** What about the GI50 (SNU-423, SNU-423, Liver) of the same compound?
**A.** 1460 nM

**Q.** What about the IC50 (SNU-423, SNU-423, Liver) of the same compound?
**A.** 1490 nM

**Q.** What about the EC50 (SR, Lymphoma) of the same compound?
**A.** 3800 nM

**Q.** And the GI50 (SR, Lymphoma)?
**A.** 3800 nM

**Q.** And the IC50 (SR, Lymphoma)?
**A.** 3800 nM

**Q.** What about the EC50 (ST486, ST486, Lymphoma) of the same compound?
**A.** 1090 nM

**Q.** What about the GI50 (ST486, ST486, Lymphoma) of the same compound?
**A.** 1080 nM

**Q.** What about the IC50 (ST486, ST486, Lymphoma) of the same compound?
**A.** 1090 nM

**Q.** What about the EC50 (SU-DHL10, SU-DHL-10, Lymphoma) of the same compound?
**A.** 3940 nM

**Q.** What about the GI50 (SU-DHL10, SU-DHL-10, Lymphoma) of the same compound?
**A.** 3930 nM

**Q.** And the IC50 (SU-DHL10, SU-DHL-10, Lymphoma)?
**A.** 3940 nM

**Q.** What about the EC50 (SU-DHL-4, SU-DHL-4, Lymphoma) of the same compound?
**A.** 2010 nM

**Q.** And the GI50 (SU-DHL-4, SU-DHL-4, Lymphoma)?
**A.** 2010 nM

**Q.** And the IC50 (SU-DHL-4, SU-DHL-4, Lymphoma)?
**A.** 2010 nM

**Q.** What about the EC50 (SU-DHL-5, SU-DHL-5, Lymphoma) of the same compound?
**A.** 1200 nM

**Q.** And the GI50 (SU-DHL-5, SU-DHL-5, Lymphoma)?
**A.** 1190 nM

**Q.** And the IC50 (SU-DHL-5, SU-DHL-5, Lymphoma)?
**A.** 1200 nM

**Q.** And the EC50 (SU-DHL-8, SU-DHL-8, Lymphoma)?
**A.** 1770 nM

**Q.** And the GI50 (SU-DHL-8, SU-DHL-8, Lymphoma)?
**A.** 1770 nM

**Q.** And the IC50 (SU-DHL-8, SU-DHL-8, Lymphoma)?
**A.** 1770 nM

**Q.** What about the EC50 (SU.86.86, SU.86.86, Pancreas) of the same compound?
**A.** 7610 nM

**Q.** What about the GI50 (SU.86.86, SU.86.86, Pancreas) of the same compound?
**A.** 7580 nM

**Q.** And the IC50 (SU.86.86, SU.86.86, Pancreas)?
**A.** 7630 nM

**Q.** What about the EC50 (SUP-T1, SUP-T1, Lymphoma) of the same compound?
**A.** 3960 nM

**Q.** And the GI50 (SUP-T1, SUP-T1, Lymphoma)?
**A.** 3950 nM

**Q.** What about the IC50 (SUP-T1, SUP-T1, Lymphoma) of the same compound?
**A.** 3960 nM

**Q.** What about the EC50 (SW48, SW48, Colon) of the same compound?
**A.** 1330 nM

**Q.** And the GI50 (SW48, SW48, Colon)?
**A.** 1320 nM

**Q.** What about the IC50 (SW48, SW48, Colon) of the same compound?
**A.** 1330 nM

**Q.** And the EC50 [9]?
**A.** 1710 nM

**Q.** And the GI50 [9]?
**A.** 1690 nM

**Q.** And the IC50 [9]?
**A.** 1710 nM

**Q.** What about the EC50 [10] of the same compound?
**A.** 9370 nM

**Q.** And the GI50 [10]?
**A.** 8280 nM

**Q.** What about the IC50 [10] of the same compound?
**A.** 9370 nM

**Q.** What about the EC50 (SW837, SW837, Colon) of the same compound?
**A.** 2350 nM

**Q.** And the GI50 (SW837, SW837, Colon)?
**A.** 2330 nM

**Q.** What about the IC50 (SW837, SW837, Colon) of the same compound?
**A.** 2370 nM
